According to patent publication US20170173002A1, “Compositions and Methods for Treating an Infection” (CMPD LICENSING, LLC, priority 2015, published 2017):

What was measured:
Aspergillus terreus = assay: Expected efficacy of antifungal agents; conditions: expected efficacy against Aspergillus terreus
Aspergillus fumigatus = assay: Expected efficacy of antifungal agents; conditions: expected efficacy against Aspergillus fumigatus
Fusarium species = assay: Expected efficacy of antifungal agents; conditions: expected efficacy against Fusarium species
Candida species = assay: Expected efficacy of antifungal agents; conditions: expected efficacy against Candida species
Aspergillus flavus = assay: Expected efficacy of antifungal agents; conditions: expected efficacy against Aspergillus flavus
Scedosporium apiospermum = assay: Expected efficacy of antifungal agents; conditions: expected efficacy against Scedosporium apiospermum
Aspergillus niger = assay: Expected efficacy of antifungal agents; conditions: expected efficacy against Aspergillus niger
Blastomyces dermatitidis = assay: Expected efficacy of antifungal agents; conditions: expected efficacy against Blastomyces dermatitidis
Coccidioides immitis = conditions: expected efficacy against Coccidioides immitis
Cryptococcus neoformans = assay: Expected efficacy of antifungal agents; conditions: expected efficacy against Cryptococcus neoformans
[1] = tested on: Trichophyton mentagrophytes; assay: Expected efficacy of antifungal agents; conditions: expected efficacy against Trichophyton mentagrophytes
[2] = tested on: Paracoccidioides brasiliensis; assay: Expected efficacy of antifungal agents; conditions: expected efficacy against Paracoccidioides brasiliensis
Trichophyton rubrum = assay: Expected efficacy of antifungal agents; conditions: expected efficacy against Trichophyton rubrum
Histoplasma duboisii = conditions: expected efficacy against Histoplasma duboisii
Sporothrix schenckii = assay: Expected efficacy of antifungal agents; conditions: expected efficacy against Sporothrix schenckii

Measured: Efficacy

C[C@@H](c1ncncc1F)[C@](O)(Cn1cncn1)c1ccc(F)cc1F [Voriconazole, voriconazole]
yes: Aspergillus terreus | Aspergillus fumigatus | Fusarium species | Candida species | Aspergillus flavus | Scedosporium apiospermum | Aspergillus niger

CCC(C)n1ncn(-c2ccc(N3CCN(c4ccc(OC[C@H]5CO[C@](Cn6cncn6)(c6ccc(Cl)cc6Cl)O5)cc4)CC3)cc2)c1=O (mixture of isomers) [Itraconazole]
not listed: Aspergillus terreus | Fusarium species | Scedosporium apiospermum | Aspergillus niger
yes: all other assays above
